In PMC12035797, “Peptidomimetics Activating the Proteasome: A New Perspective for Parkinson’s Treatment” (Journal of Medicinal Chemistry, 2025):
Where a SMILES comes first, the peptide text is derived from it. [ ]: non-standard residue; d: D form. N(4-MeOBn)Gly = COc1ccc(CNCC(=O)O)cc1; NMeY = CN[C@@H](Cc1ccc(O)cc1)C(=O)O; Gly(N-CH2CH2OH) = O=C(O)CNCCO; NMeK = CN[C@@H](CCCCN)C(=O)O; Nlys = NCCCCNCC(=O)O

Experiments:
Assay type in all cases: biochemical
[1] = system: T1, human 20S proteasome, T-L peptidase; assay: Trypsin-like (T-L) activity of h20S probed with Boc-LRR-AMC; conditions: 100 μM Boc-LRR-AMC
T1 construct: human proteasome isolated from erythrocytes; from tissue; host or cells: human erythrocytes
Procedure: (§1) To assess the influence of substitutions increasing proteolytic stability on the modulators’ capacity to stimulate chymotrypsin-like, trypsin-like, and caspase-like activity of h20S, we used classic fluorogenic substrates: Suc-LLVY-AMC, Boc-LRR-AMC, and Z-LLE-AMC, respectively.
(§2) The effect of all synthesized peptidomimetics on the catalytic activity of the proteasome was tested using a human proteasome isolated from erythrocytes. Suc-LLVY-AMC, Boc-LRR-AMC, and Z-LLE-AMC fluorogenic substrates (Bachem, Bubendorf, Switzerland) were used for assessment of the chymotrypsin-, trypsin-, and caspase-like activities, respectively. A homemade FRET-type substrate Dabcyl-EDANS (Lys(Dabcyl)-[…]EDANS)-Gly)[26] was used as an additional probe. Stock solutions of the substrates and tested peptidomimetics were prepared in dimethyl sulfoxide (DMSO), ensuring that the final concentration of DMSO in all samples remained consistent at 2%. The small fluorogenic substrates were used at a final concentration of 100 μM, while Dabcyl-EDANS was prepared at a final concentration of 15 μM. […] Activity tests were conducted in 96-well plates using 50 mM Tris/HCl, pH 8.0, as an assay buffer. The final concentration of h20S proteasome was adjusted to 0.002 mg/mL (2.8 nM). The fluorescence of released aminomethylcoumarin (AMC) was monitored at 460 nm (λex was 380 nm), while the hydrolysis of Dabcyl-EDANS was detected by measuring emission at 493 nm (λex was set at 335 nm). Fluorescence measurements were taken continuously every 2 min over a 60 min period at 37 °C using a Tecan Infinite M200Pro spectrofluorometer (Tecan Trading AG, Männedorf, Switzerland). All activity assays were performed in at least three independent replicates. The relative activity was calculated in relation to the catalytic activity of the vehicle (DMSO)-treated latent proteasome, which was regarded as 100%. Statistical analysis was performed using the one-way ANOVA followed by Tukey’s post-hoc test. P-value <0.05 was considered statistically significant.

human 20S proteasome = system: T2, human 20S proteasome; assay: h20S proteasome activity probed with FRET-type Dabcyl-EDANS substrate; conditions: for h20S stimulating capacity, Dabcyl-EDANS: 1.0-50 μM modulator
T2 construct: human proteasome isolated from erythrocytes; from tissue; host or cells: human erythrocytes
Description: (§3) To assess the influence of substitutions increasing proteolytic stability on the modulators’ capacity to stimulate chymotrypsin-like, trypsin-like, and caspase-like activity of h20S, we used classic fluorogenic substrates: Suc-LLVY-AMC, Boc-LRR-AMC, and Z-LLE-AMC, respectively. To confirm the observed stimulating capacity, we also conducted assays using a FRET-type reporter peptide with a sequence consisting of 11 residues (Lys(Dabcyl)-[…]EDANS)-Gly).[27] As we checked, the activated 20S hydrolyzed this substrate after more than one residue (Lys, Gly, and Glu), which makes it a probe better reflecting the concerted action of the proteasome’s three peptidases. […] The discrepancy in the level of activation was mainly due to the greater sensitivity of the FRET substrate, as it is not digested, unlike the AMC-based probes, by the latent proteasome, which results in greater differences in fluorescence relative to the controls. […] The ability to affect individual peptidases of the proteasome in different ways is most likely related to the allosteric mechanism of action of the modulators. Binding at a site distant from the catalytic compartment may result in greater diversity in the pathways by which the signal reaches active sites and differential effects of that signal on each peptidase.
(§4) The effect of all synthesized peptidomimetics on the catalytic activity of the proteasome was tested using a human proteasome isolated from erythrocytes. Suc-LLVY-AMC, Boc-LRR-AMC, and Z-LLE-AMC fluorogenic substrates (Bachem, Bubendorf, Switzerland) were used for assessment of the chymotrypsin-, trypsin-, and caspase-like activities, respectively. A homemade FRET-type substrate Dabcyl-EDANS (Lys(Dabcyl)-[…]EDANS)-Gly)[26] was used as an additional probe. Stock solutions of the substrates and tested peptidomimetics were prepared in dimethyl sulfoxide (DMSO), ensuring that the final concentration of DMSO in all samples remained consistent at 2%. The small fluorogenic substrates were used at a final concentration of 100 μM, while Dabcyl-EDANS was prepared at a final concentration of 15 μM. Modulators were tested in concentrations ranging from 1.0 to 50 μM, with compounds containing TAT or 6R sequences tested at lower concentrations ranging from 0.5 to 10 μM. Activity tests were conducted in 96-well plates using 50 mM Tris/HCl, pH 8.0, as an assay buffer. The final concentration of h20S proteasome was adjusted to 0.002 mg/mL (2.8 nM). The fluorescence of released aminomethylcoumarin (AMC) was monitored at 460 nm (λex was 380 nm), while the hydrolysis of Dabcyl-EDANS was detected by measuring emission at 493 nm (λex was set at 335 nm). Fluorescence measurements were taken continuously every 2 min over a 60 min period at 37 °C using a Tecan Infinite M200Pro spectrofluorometer (Tecan Trading AG, Männedorf, Switzerland). All activity assays were performed in at least three independent replicates. The relative activity was calculated in relation to the catalytic activity of the vehicle (DMSO)-treated latent proteasome, which was regarded as 100%. Statistical analysis was performed using the one-way ANOVA followed by Tukey’s post-hoc test. P-value <0.05 was considered statistically significant.

[2] = system: T3, human 20S proteasome, C-L peptidase; assay: Caspase-like (C-L) activity of h20S probed with Z-LLE-AMC; conditions: 100 μM Z-LLE-AMC
T3 construct: human proteasome isolated from erythrocytes; from tissue; host or cells: human erythrocytes
Description: as §3, §4

[3] = system: T4, human 20S proteasome, ChT-L peptidase; assay: Chymotrypsin-like (ChT-L) activity of h20S probed with Suc-LLVY-AMC
T4 construct: human proteasome isolated from erythrocytes; from tissue; host or cells: human erythrocytes
Procedure: as §1, §2

[4] = 100 μM Suc-LLVY-AMC, whole concentration range

Row | Molecule | T-L stimulating capacity, Boc-LRR-AMC [1] | h20S stimulating capacity, Dabcyl-EDANS (human 20S proteasome; 15 μM Dabcyl-EDANS) | C-L stimulating capacity, Z-LLE-AMC [2] | ChT-L stimulating capacity, Suc-LLVY-AMC [3, 4] | stimulation of h20S activity, Dabcyl-EDANS probe (human 20S proteasome; 15 μM Dabcyl-EDANS, level reached vs latent proteasome) [fold] | h20S stimulating potency, Dabcyl-EDANS (human 20S proteasome; at the lowest concentrations) | stimulation of h20S activity, Suc-LLVY-AMC probe ([3]; 100 μM Suc-LLVY-AMC, level reached vs latent proteasome) [fold] | ChT-L stimulating capacity, Suc-LLVY-AMC ([3]; at higher concentrations) | ChT-L stimulating capacity, Suc-LLVY-AMC ([3]; at 1 μM concentration)
1 | COc1ccc(CN(CC(=O)N[C@@H](CCCNC(=N)N)C(=O)N[C@@H](CCCNC(=N)N)C(=O)N[C@@H](Cc2ccc(O)cc2)C(=O)N[C@@H](Cc2ccc(O)cc2)C(=O)N[C@@H](CO)C(=O)O)C(=O)[C@H](CC(=O)O)NC(=O)[C@H](CCCCN)NC(=O)[C@H](CO)NC(=O)CNC(=O)[C@@H](NC(=O)[C@H](Cc2ccccc2)NC(=O)[C@H](Cc2ccc(O)cc2)NC(=O)[C@@H](N)CCCCN)[C@@H](C)O)cc1 [2e] (H-KYFTGSKD[N(4-MeOBn)Gly]RRYYS-OH) | weakest activators | least effective stimulants | weakest activators | least effective stimulants |  |  |  |  | 
2 | CN[C@@H](CCCCN)C(=O)N(C)[C@@H](Cc1ccc(O)cc1)C(=O)N[C@@H](Cc1ccccc1)C(=O)N[C@H](C(=O)NCC(=O)N[C@@H](CO)C(=O)N[C@@H](CCCCN)C(=O)N[C@@H](CC(=O)O)C(=O)N[C@@H](Cc1c[nH]c2ccccc12)C(=O)N[C@@H](CCCNC(=N)N)C(=O)N[C@@H](CO)C(=O)N[C@@H](Cc1ccc(O)cc1)C(=O)N[C@@H](Cc1ccc(O)cc1)C(=O)N[C@@H](CO)C(=O)O)[C@@H](C)O [1e] (H-[NMeK][NMeY]FTGSKDWRSYYS-OH) |  | did not lose their ability to effectively stimulate h20S |  |  | 12 | even more potent than 1 | 8 |  | 
3 | C[C@@H](O)[C@H](NC(=O)[C@H](Cc1ccccc1)NC(=O)[C@H](Cc1ccc(O)cc1)NC(=O)[C@@H](N)CCCCN)C(=O)NCC(=O)N[C@@H](CO)C(=O)N[C@@H](CCCCN)C(=O)N[C@@H](CC(=O)O)C(=O)N[C@@H](Cc1c[nH]c2ccccc12)C(=O)N[C@@H](CCCNC(=N)N)C(=O)N(CCO)CC(=O)N[C@@H](Cc1ccc(O)cc1)C(=O)N[C@@H](Cc1ccc(O)cc1)C(=O)N[C@@H](CO)C(=O)O [1b] (H-KYFTGSKDWR[Gly(N-CH2CH2OH)]YYS-OH) |  | less strongly than 1 |  | lower capacity of activating h20S |  |  |  |  | 
4 | H-KYFTGSKDYRRYYS-OH [compound 2] |  | most effective h20S stimulators |  | most effective h20S stimulators |  |  |  |  | 
5 | C[C@@H](O)[C@H](NC(=O)[C@H](Cc1ccccc1)NC(=O)[C@H](Cc1ccc(O)cc1)NC(=O)[C@@H](N)CCCCN)C(=O)NCC(=O)N[C@@H](CO)C(=O)N(CCCCN)CC(=O)N[C@@H](CC(=O)O)C(=O)N[C@@H](Cc1ccc(O)cc1)C(=O)N[C@@H](CCCNC(=N)N)C(=O)N[C@@H](CCCNC(=N)N)C(=O)N[C@@H](Cc1ccc(O)cc1)C(=O)N[C@@H](Cc1ccc(O)cc1)C(=O)N[C@@H](CO)C(=O)O [2b] (H-KYFTGS[Nlys]DYRRYYS-OH) | comparable stimulatory capacity | comparable stimulatory capacity | comparable stimulatory capacity |  |  |  |  | efficiency comparable to 2 and 2a | 
6 | C[C@@H](O)[C@H](NC(=O)[C@H](Cc1ccccc1)NC(=O)[C@H](Cc1ccc(O)cc1)NC(=O)CNCCCCN)C(=O)NCC(=O)N[C@@H](CO)C(=O)N(CCCCN)CC(=O)N[C@@H](CC(=O)O)C(=O)N[C@@H](Cc1ccc(O)cc1)C(=O)N[C@@H](CCCNC(=N)N)C(=O)N[C@@H](CCCNC(=N)N)C(=O)N[C@@H](Cc1ccc(O)cc1)C(=O)N[C@@H](Cc1ccc(O)cc1)C(=O)N[C@@H](CO)C(=O)O [2c] (H-[Nlys]YFTGS[Nlys]DYRRYYS-OH) | comparable stimulatory capacity | comparable stimulatory capacity | comparable stimulatory capacity |  |  |  |  | efficiency comparable to 2 and 2a | same moderate efficiency
7 | RKKRRQRRR [tat, fragment of the HIV-1 Tat 48–58 peptide used as cell-penetrating peptide, tested alone as control, reference compound] |  |  |  | proteasome inhibition |  |  |  |  | 
8 | COc1ccc(CN(CC(=O)N[C@@H](Cc2ccccc2)C(=O)N[C@H](C(=O)NCC(=O)N[C@@H](CO)C(=O)N[C@@H](CCCCN)C(=O)N[C@@H](CC(=O)O)C(=O)N[C@@H](Cc2ccc(O)cc2)C(=O)N[C@@H](CCCNC(=N)N)C(=O)N[C@@H](CCCNC(=N)N)C(=O)N[C@@H](Cc2ccc(O)cc2)C(=O)N[C@@H](Cc2ccc(O)cc2)C(=O)N[C@@H](CO)C(=O)O)[C@@H](C)O)C(=O)[C@@H](N)CCCCN)cc1 [2d] (H-K[N(4-MeOBn)Gly]FTGSKDYRRYYS-OH) | comparable stimulatory capacity | comparable stimulatory capacity | comparable stimulatory capacity |  |  |  |  | as inefficient as 2e | same moderate efficiency
